Values of other authors in patent US20090264528A1, “SERINE PALMITOYLCOA TRANSFERASE (SPT) INHIBITION BY MYRIOCIN OR GENETIC DEFICIENCY DECREASES CHOLESTEROL ABSORPTION” (The Research Foundation of State University of New York, priority 2008, published 2009).

Settings: apoE KO mice; cited from earlier work

SMILES: CCCCCCCCc1ccc(CCC(N)(CO)CO)cc1 [FTY720]
- plasma cholesterol levels: increases
